Assay results reported in ChEMBL document CHEMBL1133279, “Aminoalkyl adenylate and aminoacyl sulfamate intermediate analogues differing greatly in affinity for their cognate Staphylococcus aureus aminoacyl tRNA synthetases” (Bioorg Med Chem Lett, 2000).

Columns and labels:
[1] = tested on: Threonyl-tRNA synthetase (Staphylococcus aureus); experiment: Inhibitory activity against cognate Staphylococcus aureus threonyl tRNA synthetase at 300 uM
[2] = tested on: Histidyl-tRNA synthetase (Staphylococcus aureus); experiment: Inhibitory activity against cognate Staphylococcus aureus Histidyl-tRNA synthetase at 300 uM

inhibition [1] [%]	inhibition [2] [%]	Structure (SMILES)
60	–	C[C@@H](O)[C@H](N)COP(=O)(O)OC[C@H]1O[C@@H](n2cnc3c(N)ncnc32)[C@H](O)[C@@H]1O
–	20	Nc1ncnc2c1ncn2[C@@H]1O[C@H](COP(=O)(O)OC[C@@H](N)Cc2c[nH]cn2)[C@@H](O)[C@H]1O
